The TGI is the concentration giving total growth inhibition.

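The compound was tested at five concentrations on cells cultured in 96-well plates, with a 48-hour exposure period. TGI marks complete inhibition of growth.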 Bounds are passed on as bounds.

Test systems include ACHN renal; CAKI-1 renal; LXFL 529 NSCLC; M19-MEL melanoma; OVCAR-3 ovarian; SR leukemia; TK-10 renal; U251 CNS; UACC-62 melanoma.
What all share (test): DTP human tumour cell line panel, 48 h

Consider `O=c1c2c(-c3ccccc3)c3ccccc3nc2cnn1-c1ccccc1`, for which the TGI in the test on ACHN renal, in the test on CAKI-1 renal, with LXFL 529 NSCLC, in the test with M19-MEL melanoma, in the test on OVCAR-3 ovarian and in the test on SR leukemia was greater than 100 µM each time. The TGI with TK-10 renal, with U251 CNS and in the test with UACC-62 melanoma was greater than 100 µM throughout.
In the case of `Clc1ccccc1CN1COc2c(ccc3cccnc23)C1`, the TGI in the test on ACHN renal came to 13.2 µM; in the test on CAKI-1 renal it was 12.8 µM; in the test with M19-MEL melanoma it was 15.1 µM; with OVCAR-3 ovarian it was 11.2 µM; in the test on TK-10 renal it was 23.2 µM; in the test with U251 CNS it was 19.1 µM. Also, the TGI in the test with UACC-62 melanoma worked out at 8.56 µM.
As to `N=c1c2ccccc2sc2nc3ccccc3n12`, the TGI in the test on ACHN renal, with CAKI-1 renal, in the test on LXFL 529 NSCLC, in the test on M19-MEL melanoma, with SR leukemia and with TK-10 renal was greater than 100 µM each time. Besides, the TGI in the test on U251 CNS and in the test with UACC-62 melanoma was greater than 100 µM throughout.
Regarding `COC/N=C(\NC#N)NCOC`, the TGI in the test on ACHN renal is greater than 100 µM; with CAKI-1 renal, greater than 100 µM; with LXFL 529 NSCLC, greater than 100 µM; in the test with M19-MEL melanoma it was greater than 100 µM; with OVCAR-3 ovarian, greater than 100 µM; in the test with SR leukemia, 54.6 µM. Further, the TGI in the test with TK-10 renal, in the test on U251 CNS and with UACC-62 melanoma was greater than 100 µM in each case.
For the compound `COc1ccc(O)c(C(=O)CCC(=O)O)c1`, the TGI in the test on ACHN renal was greater than 100 µM; in the test on LXFL 529 NSCLC it was greater than 100 µM; in the test with M19-MEL melanoma, greater than 100 µM; in the test with OVCAR-3 ovarian, greater than 10 µM; in the test on SR leukemia, greater than 100 µM; with TK-10 renal it was greater than 100 µM. The TGI in the test on U251 CNS and with UACC-62 melanoma was greater than 100 µM throughout.
With `C1=Cc2nc1c(-c1ccccc1)c1ccc([nH]1)c(-c1ccccc1)c1nc(c(-c3ccccc3)c3ccc([nH]3)c2-c2ccccc2)C=C1`, the TGI in the test on ACHN renal, in the test on CAKI-1 renal, in the test on LXFL 529 NSCLC, with M19-MEL melanoma, in the test on OVCAR-3 ovarian and in the test on SR leukemia was greater than 100 µM in each case. Besides, the TGI in the test on TK-10 renal, with U251 CNS and in the test on UACC-62 melanoma was greater than 100 µM throughout.
For `COC(=O)c1cc(=O)nc2cc3cccccc3n12`, the concentration for total growth inhibition (TGI) with ACHN renal, in the test with LXFL 529 NSCLC, in the test with M19-MEL melanoma, in the test on OVCAR-3 ovarian, with SR leukemia and with TK-10 renal was greater than 100 µM each time. Moreover, the TGI in the test with U251 CNS and in the test on UACC-62 melanoma was greater than 100 µM in each case.
Consider `CCOc1ccc(N=C(NC(=O)c2ccccc2)SC)cc1`, for which the TGI in the test with ACHN renal, with CAKI-1 renal, in the test with LXFL 529 NSCLC, in the test with M19-MEL melanoma, in the test with OVCAR-3 ovarian and with SR leukemia was greater than 100 µM each time. In addition, the TGI in the test on TK-10 renal, in the test on U251 CNS and with UACC-62 melanoma was greater than 100 µM each time.
`CC1CC2(S(=O)(=O)c3ccccc3)ON1CC2S(=O)(=O)c1ccccc1` (centres undefined): the TGI in the test with ACHN renal, in the test on CAKI-1 renal, with LXFL 529 NSCLC, in the test on M19-MEL melanoma, in the test with OVCAR-3 ovarian and with SR leukemia was greater than 100 µM in each case. In addition, the TGI with TK-10 renal, in the test with U251 CNS and with UACC-62 melanoma was greater than 100 µM throughout.
On to `COc1ccccc1-c1cc(=O)c2cc(C)c(C)c(C(=O)O)c2o1`, for which the TGI in the test with ACHN renal, in the test on LXFL 529 NSCLC, in the test with M19-MEL melanoma, in the test with OVCAR-3 ovarian, in the test on TK-10 renal and in the test on U251 CNS was greater than 100 µM throughout. In addition, in the test on UACC-62 melanoma, the TGI is greater than 100 µM.
With `COc1ccc(/C=C2\CCC(CCN(C)C)(C3=CCCC3)C2=O)cc1` (centres undefined), the TGI in the test with ACHN renal is 31.2 µM; in the test with CAKI-1 renal it was 22.8 µM; in the test with LXFL 529 NSCLC it was 30.4 µM; in the test on M19-MEL melanoma it was 28.4 µM; in the test with OVCAR-3 ovarian it was 49.7 µM; in the test on SR leukemia it was 88.5 µM. The TGI with TK-10 renal was found to be 30.7 µM; in the test with U251 CNS, 30.4 µM; in the test with UACC-62 melanoma, 30.3 µM.
For the compound `CCOc1cccc2c1N[S@@](=O)S2`, the TGI in the test with ACHN renal, in the test with CAKI-1 renal, with LXFL 529 NSCLC, with M19-MEL melanoma, in the test on OVCAR-3 ovarian and with SR leukemia was greater than 100 µM in each case. Further, the TGI in the test with TK-10 renal, with U251 CNS and with UACC-62 melanoma was greater than 100 µM in each case.
For the compound `OC1=CN=COc2ccccc21`, the TGI with ACHN renal, in the test on LXFL 529 NSCLC, in the test with M19-MEL melanoma, in the test on OVCAR-3 ovarian, with TK-10 renal and with U251 CNS was greater than 100 µM in each case. In the test on UACC-62 melanoma, this compound returned a TGI greater than 100 µM.
Consider `CCCCCCC(O)CC[C@H]1CCC[C@@H](C)N1` (some centres undefined), for which the TGI with ACHN renal was greater than 100 µM; in the test on CAKI-1 renal, greater than 100 µM; in the test with LXFL 529 NSCLC, greater than 100 µM; in the test with M19-MEL melanoma, greater than 31.6 µM; in the test on OVCAR-3 ovarian, less than 10 µM; with SR leukemia, greater than 100 µM. The TGI with TK-10 renal is greater than 100 µM; in the test with U251 CNS it was greater than 31.6 µM; in the test on UACC-62 melanoma it was greater than 100 µM.
As for `CCC1=CCN(c2cc(C)ccn2)OC1c1ccccc1` (centres undefined), the TGI with ACHN renal was greater than 100 µM; with CAKI-1 renal it was greater than 100 µM; with LXFL 529 NSCLC, greater than 100 µM; in the test on M19-MEL melanoma, greater than 100 µM; in the test on OVCAR-3 ovarian it was greater than 100 µM; with SR leukemia, 55.7 µM. Besides, the TGI is 46.2 µM with U251 CNS and greater than 100 µM in the test on UACC-62 melanoma.
For the compound `COC(=O)C(C(=O)C(=O)Nc1ccc(C)cc1C)c1csc(-n2nc(-c3ccccc3)cc2-c2ccccc2)n1` (centres undefined), the TGI in the test with ACHN renal, in the test on CAKI-1 renal, in the test with LXFL 529 NSCLC, in the test on M19-MEL melanoma, with OVCAR-3 ovarian and in the test with SR leukemia was greater than 100 µM each time. In addition, the TGI in the test on TK-10 renal, in the test on U251 CNS and in the test on UACC-62 melanoma was greater than 100 µM throughout.

Values taken from PubChem BioAssay (NCI).
